Reference: patent US4359459A, “O-α-D-Multigalactopyranosyl-O-α-D-multiglucopyranosyl-O-β- D” (American Cyanamid Company, priority 1981, dated 1982)
Where a name gives a salt, the structure may show the parent alone.

Assays:
complement system = conditions: Br. J. Exp. Pathol. 33: 327 (1952); cited from earlier work
[1] = system: late components of human complement (C3-C9); assay: Test Code 035 (C3-C9 inhibitor), lysis of EAC 142; format: biochemical; parameters: key: N = Negative; conditions: in vitro; twofold serial dilution assay
Text: (§1) An active inhibitor protects C2 from C1 and C4; (ii) Test Code 035 (C3-C9 inhibitor)--This test determines the ability of the late components of human complement (C3-C9) to lyse EAC 142 in the presence of appropriate dilutions of the test compound. An active inhibitor protects EAC 142 from lysis by human C3-C9; (iii) Test Code 036 (C-Shunt inhibitor)--In this test human erythrocytes rendered fragile are lysed in autologous serum via the shunt pathway activated by cobra venom factor in the presence of appropriate dilutions of the test compound. Inhibition of the shunt pathway results in failure of lysis; (iv) Cap 50 Test-- Here, appropriate amounts of the test compound are added to a pool of guinea pig serum in vitro, after which the undiluted serum capillary tube assay of U.S. Pat. No. 3,876,376 is run. The concentration of compound inhibiting 50% is reported; and (v) Guinea Pig Intraperitoneal Test (GPIP)--Guinea Pigs weighing about 300 g are dosed intraperitoneally (i.p.) with 200 mg/kg of the test compound dissolved in saline and adjusted to pH 7-8. […] Percent inhibition is calculated by comparison with simultaneous controls. […]

shunt pathway = assay: Test Code 036 (C-Shunt inhibitor), lysis of fragile human erythrocytes in autologous serum, cobra venom factor; format: biochemical; conditions: in vitro; twofold serial dilution assay, higher well number indicates higher activity
Text: as §1

activated human C1 = biological target: T1, activated human C1 (Homo sapiens, UniProt P09871); assay: Test Code 026 (C1 inhibitor); format: biochemical; conditions: in vitro; twofold serial dilution assay, higher well number indicates higher activity
T1 sequence (P09871 438-688 limits assumed): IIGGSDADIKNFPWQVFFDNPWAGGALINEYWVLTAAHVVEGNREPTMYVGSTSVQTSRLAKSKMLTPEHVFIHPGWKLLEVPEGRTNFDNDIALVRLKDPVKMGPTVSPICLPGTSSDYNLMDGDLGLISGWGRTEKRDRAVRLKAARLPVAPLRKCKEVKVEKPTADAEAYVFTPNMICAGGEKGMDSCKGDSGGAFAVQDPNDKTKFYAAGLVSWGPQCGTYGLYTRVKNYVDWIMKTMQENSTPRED
T1 sequence (P09871 16-437 limits assumed): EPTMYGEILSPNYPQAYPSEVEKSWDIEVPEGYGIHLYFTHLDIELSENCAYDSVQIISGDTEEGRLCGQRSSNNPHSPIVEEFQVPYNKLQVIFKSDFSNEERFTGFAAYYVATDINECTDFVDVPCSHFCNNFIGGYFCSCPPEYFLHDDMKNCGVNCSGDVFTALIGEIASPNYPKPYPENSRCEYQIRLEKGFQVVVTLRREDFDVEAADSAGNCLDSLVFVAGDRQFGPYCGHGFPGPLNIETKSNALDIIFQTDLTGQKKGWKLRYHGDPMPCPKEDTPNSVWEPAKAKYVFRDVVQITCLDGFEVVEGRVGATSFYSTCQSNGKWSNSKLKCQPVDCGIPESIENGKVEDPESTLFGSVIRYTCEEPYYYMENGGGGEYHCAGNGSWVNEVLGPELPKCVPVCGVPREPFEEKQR
Text: as §1

human serum = conditions: both in vitro and in vivo, judged by reduction in total hemolytic complement activity; cited from earlier work
complement activity = assay: Guinea Pig Intraperitoneal Test (GPIP); format: in vivo, Guinea Pigs; conditions: 200 mg/kg i.p.
Text: An active inhibitor protects C2 from C1 and C4; (ii) Test Code 035 (C3-C9 inhibitor)--This test determines the ability of the late components of human complement (C3-C9) to lyse EAC 142 in the presence of appropriate dilutions of the test compound. An active inhibitor protects EAC 142 from lysis by human C3-C9; (iii) Test Code 036 (C-Shunt inhibitor)--In this test human erythrocytes rendered fragile are lysed in autologous serum via the shunt pathway activated by cobra venom factor in the presence of appropriate dilutions of the test compound. Inhibition of the shunt pathway results in failure of lysis; (iv) Cap 50 Test-- Here, appropriate amounts of the test compound are added to a pool of guinea pig serum in vitro, after which the undiluted serum capillary tube assay of U.S. Pat. No. 3,876,376 is run. The concentration of compound inhibiting 50% is reported; and (v) Guinea Pig Intraperitoneal Test (GPIP)--Guinea Pigs weighing about 300 g are dosed intraperitoneally (i.p.) with 200 mg/kg of the test compound dissolved in saline and adjusted to pH 7-8. Approximately 0.4 ml blood samples, taken by orbital sinus puncture 30 minutes and one hour after injections, are collected directly into centrifuge tubes; 5 ml blood samples, taken by decapitation 2 hours after injection, are collected directly into diSPo® beakers. The samples are allowed to clot, centrifuged, and the resultant sera are assayed for complement activity using the capillary complement assay. Percent inhibition is calculated by comparison with simultaneous controls. The results of the GPIP appear in Table I together with results of Test Code 026, 035, 036 and Cap 50.

[2] = system: hereditary angioneurotic edema; conditions: literature reports; cited from earlier work

Nc1ccc2cc(S(=O)(=O)[O-])cc(O)c2c1N=Nc1ccc(NC(=O)Nc2ccc(N=Nc3c(N)ccc4cc(S(=O)(=O)[O-])cc(O)c34)c(S(=O)(=O)[O-])c2)cc1S(=O)(=O)[O-].[Na+].[Na+].[Na+].[Na+] [chlorazol fast pink, 3,3'-ureylenebis[6-(2-amino-8-hydroxy-6-sulfo-1-naphthylazo)benzenesulfonic acid], tetrasodium salt]
anti-complementary effect (complement system): anti-complementary effect

O=S(=O)(O)OCC1OC(OCC2OC(COS(=O)(=O)O)(OC3OC(COC4OC(COC5OC(COS(=O)(=O)O)C(OS(=O)(=O)O)C(OS(=O)(=O)O)C5OS(=O)(=O)O)C(OS(=O)(=O)O)C(OS(=O)(=O)O)C4OS(=O)(=O)O)C(OS(=O)(=O)O)C(OS(=O)(=O)O)C3OS(=O)(=O)O)C(OS(=O)(=O)O)C2OS(=O)(=O)O)C(OS(=O)(=O)O)C(OS(=O)(=O)O)C1OC1OC(COS(=O)(=O)O)C(OC2OC(COS(=O)(=O)O)C(OS(=O)(=O)O)C(OS(=O)(=O)O)C2OS(=O)(=O)O)C(OS(=O)(=O)O)C1OS(=O)(=O)O [drawing 11, O-α-D-Galactopyranosyl(1→6)-O-α-D-galactopyranosyl(1→6)-O-α-D-glucopyranosyl(1→2)-O-β-D-fructofuranosyl(1→6)-O-α-D-glucopyranosyl(1→4)-O-α-D-glucopyranosyl-α-D-glucopyranoside, tricosakis (H-sulfate), tricosasalt with trimethylamine]
C-Late 035* Wells [1]: N | C-Shunt Inhibition 036* Wells (shunt pathway): +5 Wells | Cl 026* Wells (activated human C1): +9 Wells

pentosanpolysulfoester
anticomplementary activity on human serum (human serum): anticomplementary activity

heparin
anti-complementary effect (complement system): anti-complementary effect

O=S(=O)(O)OCC1OC(OCC2OC(COS(=O)(=O)O)(OC3OC(COC4OC(COC5OC(COS(=O)(=O)O)C(OS(=O)(=O)O)C(OS(=O)(=O)O)C5OS(=O)(=O)O)C(OS(=O)(=O)O)C(OS(=O)(=O)O)C4OS(=O)(=O)O)C(OS(=O)(=O)O)C(OS(=O)(=O)O)C3OS(=O)(=O)O)C(OS(=O)(=O)O)C2OS(=O)(=O)O)C(OS(=O)(=O)O)C(OS(=O)(=O)O)C1OC1OC(COS(=O)(=O)O)C(OC2OC(COS(=O)(=O)O)C(OS(=O)(=O)O)C(OS(=O)(=O)O)C2OS(=O)(=O)O)C(OS(=O)(=O)O)C1OS(=O)(=O)O [drawing 12, O-α-D-Galactopyranosyl(1→6)-O-α-D-galactopyranosyl(1.fwd arw.6)-O-α-D-glucopyranosyl(1→2)-O-β-D-fructofuranosyl(1→6)-O-α-D-glucopyranosyl(1→4)-O-α-D-glucopyranosyl-α-D-glucopyranoside, tricosakis (H-sulfate), tricosasodium salt]
C-Late 035* Wells [1]: N | C-Shunt Inhibition 036* Wells (shunt pathway): +5 Wells | In vivo Activity (Guinea Pigs) % Inhibition Intraperitoneal, 30 minutes (complement activity; serum 30 minutes after injection): 63% | In vivo Activity (Guinea Pigs) % Inhibition Intraperitoneal, 60 minutes (complement activity; serum 60 minutes after injection): 61% | In vivo Activity (Guinea Pigs) % Inhibition Intraperitoneal, 120 minutes (complement activity; serum 120 minutes after injection): 67% | Cl 026* Wells (activated human C1): +9 Wells

NCCCCCC(=O)O [epsilon-aminocaproic acid]
treatment of hereditary angioneurotic edema [2]: used with success

NC[C@H]1CC[C@H](C(=O)O)CC1 [tranexamic acid]
treatment of hereditary angioneurotic edema [2]: used with success
